Source: patent US20240116910A1, “Heterocycles as WIP1 Inhibitors” (PMV Pharmaceuticals, Inc., priority 2022, published 2024)

Tests used:
[1] = biological target: recombinant His-tag Wip1 full length protein (amino acids #1-605) (Homo sapiens (Human), UniProt O15297); test: Wip1 full length phosphatase enzyme FDP assay; format: biochemical; conditions: fluorescein diphosphate (FDP) substrate, RT 2 hours, fluorescence Ex485/Em535
Procedure: The Human Wip1 (2-420, aa 2-420) or Wip1 full length (aa 1-605) DNA sequence was codon optimized and synthesized by Genscript for insect cell expression. The open reading frame of Wip1(2-420) with a N-terminal-His6 affinity tag followed by a TEV cleavage site was subcloned sites into the pFastBac1 expression vector. The recombinant bacmid DNA was transfected in Sf9 insect cells for baculovirus production. After 72 hours infection, the Sf9 cells were harvested by centrifugation and resuspended in lysis buffer containing 50 mM Tris/HCl, pH 8.0, 500 mM NaCl, 20% glycerol, Benzonase 0.5% CHAPS and Roche cOmplete™ EDTA free protease inhibitors. Cells were disrupted with microfluidizer and the debris was removed by centrifugation at 185,000 g for 1 hour. The supernatant was subjected to HisTrap FF for affinity purification. Proteins were eluted with a linear gradient of 0-500 mM imidazole in HisTrap buffer containing 50 mM Tris/HCl, pH 8.0, 500 mM NaCl and 20% glycerol, 0.05% CHAPS. The eluted protein was dialyzed against dialysis buffer (20 mM MES, 100 mM NaCl, 20% glycerol, 0.5 mM TCEP, 0.05% CHAPS) followed purification via HiTrap SP HP column. The protein was eluted with a gradient of 100 mM-2 M NaCl in dialysis buffer. His6-[…] was finally concentrated and loaded onto a size-exclusion column (NiLoad 16/600 Superdex 200 pg, GE Healthcare) pre-equilibrated with 50 mM MOPS (pH 7.5), 200 mM NaCl, 20% glycerol, 1 mM TCEP, 0.05% CHAPS and 0.1 mM EGTA. The peak fractions containing purified Nis6-Wip1(2-420) were pooled and concentrated to 1.0 mg/mL and flash frozen at −80° C.
Wip1 Length and Wip1(2-420) Phosphatase Enzyme FDP Assays.
Test compounds (252 mM stock in DMSO) were diluted 3 folds in series in DMSO and 1.2 μl per well were added into 384-well polypropylene black plates (Nunc). Twelve μl per well of Assay Buffer (100 mM NaCl, 50 mM MOPS, pH 7.5, 0.8 mM CHAPS, 0.1 mM EGTA, 30 mM MgCl2, 0.3 mM TCEP, 0.2 mg/mL BSA) was added followed by […] per well of 50.4 nM recombinant His-tag Wip1 full length protein (amino acids #1-605) or recombinant His-tag Wip1(2-420) protein (amino acids #2-420) in Assay Buffer and the plate was incubated at RT (22° C.) for 5 min. Ten mM of fluorescein diphosphate (FDP) in DMSO was diluted to […] in Assay Buffer and […] per well was added to the plate and incubated at RT (22° C.) for 2 hours. […] per well of 64.1 mM EDTA in water were added to stop the enzyme reaction. The plate was centrifuged at 1,200 rpm (Eppendorf 5810R Plate centrifuge) for 1 minute and fluorescence intensity (Ex485/Em535) was measured on Perkin Elmer Victor Reader. EC50 values were calculated using either Prism (GraphPad) or ActivityBase software (IDBS), The IC50 results are provided in Table M.

[2] = biological target: recombinant His-tag Wip1(2-420) protein (amino acids #2-420) (Homo sapiens (Human), UniProt O15297); test: Wip1(2-420) phosphatase enzyme FDP assay; format: biochemical; conditions: fluorescein diphosphate (FDP) substrate, RT 2 hours, fluorescence Ex485/Em535; read-out: WIP1 (Truncated 2-420) FDP Assay: IC50
Chain of recombinant His-tag Wip1(2-420) protein (amino acids #2-420) (O15297 2-420): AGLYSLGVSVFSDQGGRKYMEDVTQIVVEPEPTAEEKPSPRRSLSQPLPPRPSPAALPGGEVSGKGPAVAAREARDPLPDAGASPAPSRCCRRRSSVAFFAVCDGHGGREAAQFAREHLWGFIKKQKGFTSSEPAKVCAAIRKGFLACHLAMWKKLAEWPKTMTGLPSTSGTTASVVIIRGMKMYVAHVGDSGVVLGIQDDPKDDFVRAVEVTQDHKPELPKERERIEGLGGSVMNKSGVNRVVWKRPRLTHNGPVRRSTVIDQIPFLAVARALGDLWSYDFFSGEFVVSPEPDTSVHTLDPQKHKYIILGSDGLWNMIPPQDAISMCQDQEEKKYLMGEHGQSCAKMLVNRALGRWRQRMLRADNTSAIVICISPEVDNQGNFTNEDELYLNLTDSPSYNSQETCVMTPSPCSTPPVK

Chain of recombinant His-tag Wip1 full length protein (amino acids #1-605) (O15297 whole entry, the tested form may be a part): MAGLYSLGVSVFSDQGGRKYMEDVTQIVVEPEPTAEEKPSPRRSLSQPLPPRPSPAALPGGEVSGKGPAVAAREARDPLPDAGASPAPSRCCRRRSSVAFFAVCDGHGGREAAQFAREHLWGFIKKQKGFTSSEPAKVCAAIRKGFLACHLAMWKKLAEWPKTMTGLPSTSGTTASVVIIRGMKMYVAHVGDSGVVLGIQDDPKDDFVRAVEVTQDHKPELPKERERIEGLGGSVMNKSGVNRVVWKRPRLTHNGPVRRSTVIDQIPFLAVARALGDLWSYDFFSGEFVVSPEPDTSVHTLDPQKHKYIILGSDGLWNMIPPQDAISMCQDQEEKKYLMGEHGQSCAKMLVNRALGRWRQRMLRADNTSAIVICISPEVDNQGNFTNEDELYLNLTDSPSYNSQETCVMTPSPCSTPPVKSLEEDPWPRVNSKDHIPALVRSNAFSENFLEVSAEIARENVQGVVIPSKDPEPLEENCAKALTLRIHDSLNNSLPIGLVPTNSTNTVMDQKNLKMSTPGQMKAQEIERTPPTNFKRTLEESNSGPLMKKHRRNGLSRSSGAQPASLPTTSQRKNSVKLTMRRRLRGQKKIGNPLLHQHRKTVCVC

SMILES	IC50 [1]	IC50 [2]
C[C@@H](Nc1ccc(F)c(Cl)c1)c1ccc(C(=O)N[C@@H](CC2CCCC2)C(=O)NC2CC2)s1 [Compound 7, 5-[(1R)-1-(3-chloro-4-fluoro-anilino)ethyl]-N-[(1S)-1-(cyclopentylmethyl)-2-(cyclopropylamino)-2-oxo-ethyl]thiophene-2-carboxamide]	68 nM	80 nM
Cc1ncc(Cl)cc1N[C@@H](C)c1ccc(C(=O)N[C@@H](CC2CCCC2)C(=O)NC2CC2)s1 [Compound 8, 5-[(1S)-1-[(5-chloro-2-methyl-3-pyridyl)amino]ethyl]-N-[(1S)-1-(cyclopentylmethyl)-2-(cyclopropylamino)-2-oxo-ethyl]thiophene-2-carboxamide]	11 nM	8 nM
Cc1ncc(Cl)cc1NC(C)c1ccc(C(=O)N[C@@H](CC2CCCC2)C(=O)NC23CC(C2)C3)s1 (stereo partly drawn) [Compound 10, N-[(1S)-2-(1-bicyclo [1.1.1]pentanylamino)-1-(cyclopentylmethyl)-2-oxo-ethyl]-5-[1-[(5-chloro-2-methyl-3-pyridyl)amino]ethyl]thiophene-2-carboxamide]	18 nM	10 nM
Cc1ncc(Cl)cc1N[C@@H](C)c1ccc(C(=O)N[C@@H](CC2CCCC2)C(=O)NC23CC(C2)C3)s1 [Compound 11, (2S)-N-{bicyclo[1.1.1]pentan-1-yl}-2-({5-[(1S)-1-[(5-chloro-2-methylpyridin-3-yl)amino]ethyl]thiophen-2-yl}formamido)-3-cyclopentylpropanamide]	9 nM	6 nM
Cc1ncc(Cl)cc1N[C@H](C)c1ccc(C(=O)N[C@@H](CC2CCCC2)C(=O)NC23CC(C2)C3)s1 [Compound 12, (2S)-N-{bicyclo[1.1.1]pentan-1-yl}-2-({5-[(1R)-1-[(5-chloro-2-methylpyridin-3-yl)amino]ethyl]thiophen-2-yl}formamido)-3-cyclopentylpropanamide]	356 nM	148 nM
Cc1ncc(Cl)cc1NC(C)c1ccc(C(=O)N[C@@H](CC2CCCC2)C(=O)NC2CC2(F)F)s1 (stereo partly drawn) [Compound 13, (2S)-2-[(5-{1-[(5-chloro-2-methylpyridin-3-yl)amino]ethyl}thiophen-2-yl)formamido]-3-cyclopentyl-N-(2,2-difluorocyclopropyl)propanamide]	11 nM	10 nM
Cc1ncc(Cl)cc1N[C@@H](C)c1ccc(C(=O)N[C@@H](CC2CCCC2)C(=O)NC2CC2(F)F)s1 (stereo partly drawn) [Compound 14, (2S)-2-({5-[(1S)-1-[(5-chloro-2-methylpyridin-3-yl)amino]ethyl]thiophen-2-yl}formamido)-3-cyclopentyl-N-(2,2-difluorocyclopropyl)propanamide]	6 nM	7 nM
Cc1ncc(Cl)cc1N[C@H](C)c1ccc(C(=O)N[C@@H](CC2CCCC2)C(=O)NC2CC2(F)F)s1 (stereo partly drawn) [Compound 15, (2S)-2-({5-[(1R)-1-[(5-chloro-2-methylpyridin-3-yl)amino]ethyl]thiophen-2-yl}formamido)-3-cyclopentyl-N-(2,2-difluorocyclopropyl)propanamide]	71 nM	80 nM
Cc1ncc(Cl)cc1N[C@@H](C)c1ccc(C(=O)N[C@@H](CC2CCCC2)C(=O)NC23CC(F)(C2)C3)s1 [Compound 16, (2S)-2-({5-[(1S)-1-[(5-chloro-2-methylpyridin-3-yl)amino]ethyl]thiophen-2-yl}formamido)-3-cyclopentyl-N-{3-fluorobicyclo[1.1.1]pentan-1-yl}propanamide]	10 nM	7 nM
Cc1ncc(Cl)cc1N[C@@H](C)c1ccc(C(=O)N[C@@H](CC2CCCC2)C(=O)NC23CC(C)(C2)C3)s1 [Compound 17, (2S)-2-({5-[(1S)-1-[(5-chloro-2-methylpyridin-3-yl)amino]ethyl]thiophen-2-yl}formamido)-3-cyclopentyl-N-{3-methylbicyclo[1.1.1]pentan-1-yl}propanamide]	6 nM	7 nM

Continued, values first:

IC50 [1]	IC50 [2]	SMILES
8 nM	7 nM	Cc1ncc(Cl)cc1N[C@@H](C)c1ccc(C(=O)N[C@@H](CC2CCCC2)C(=O)Nc2ccc(F)cc2)s1 [Compound 18, (2S)-2-({5-[(1S)-1-[(5-chloro-2-methylpyridin-3-yl)amino]ethyl]thiophen-2-yl}formamido)-3-cyclopentyl-N-(4-fluorophenyl)propanamide]
13 nM	11 nM	COC(=O)C12CC(NC(=O)[C@H](CC3CCCC3)NC(=O)c3ccc([C@H](C)Nc4cc(Cl)cnc4C)s3)(C1)C2 [Compound 19, methyl 3-[(2S)-2-({5-[(1S)-1-[(5-chloro-2-methylpyridin-3-yl)amino]ethyl]thiophen-2-yl}formamido)-3-cyclopentylpropanamido]bicyclo[1.1.1]pentane-1-carboxylate]
10 nM	8 nM	Cc1ncc(Cl)cc1N[C@@H](C)c1ccc(C(=O)N[C@@H](CC2CCCC2)C(=O)NC23CC(O)(C2)C3)s1 [Compound 20, (2S)-2-({5-[(1S)-1-[(5-chloro-2-methylpyridin-3-yl)amino]ethyl]thiophen-2-yl}formamido)-3-cyclopentyl-N-{3-hydroxybicyclo[1.1.1]pentan-1-yl}propanamide]
139 nM	109 nM	Cc1ncc(Cl)cc1N[C@H](C)c1ccc(C(=O)N[C@@H](CC2CCCC2)C(=O)N[C@H]2CC2(F)F)s1 [Compound 21, (2S)-2-({5-[(1R)-1-[(5-chloro-2-methylpyridin-3-yl)amino]ethyl]thiophen-2-yl}formamido)-3-cyclopentyl-N-[(1S)-2,2-difluorocyclopropyl]propanamide]
8 nM	5 nM	Cc1ncc(Cl)cc1N[C@@H](C)c1ccc(C(=O)N[C@@H](CC2CCCC2)C(=O)N[C@H]2CC2(F)F)s1 [Compound 23, (2S)-2-({5-[(1S)-1-[(5-chloro-2-methylpyridin-3-yl)amino]ethyl]thiophen-2-yl}formamido)-3-cyclopentyl-N-[(1S)-2,2-difluorocyclopropyl]propanamide]
8 nM	8 nM	Cc1ncc(Cl)cc1N[C@@H](C)c1ccc(C(=O)N[C@@H](CC2CCCC2)C(=O)N[C@@H]2CC2(F)F)s1 [Compound 24, (2S)-2-({5-[(1S)-1-[(5-chloro-2-methylpyridin-3-yl)amino]ethyl]thiophen-2-yl}formamido)-3-cyclopentyl-N-[(1R)-2,2-difluorocyclopropyl]propanamide]
8 nM	5 nM	Cc1ncc(Cl)cc1N[C@@H](C)c1ccc(C(=O)N[C@@H](CC2CCCC2)C(=O)NC2CC(F)(F)C2)s1 [Compound 25, (2S)-2-({5-[(1S)-1-[(5-chloro-2-methylpyridin-3-yl)amino]ethyl]thiophen-2-yl}formamido)-3-cyclopentyl-N-(3,3-difluorocyclobutyl)propanamide]
9 nM	7 nM	Cc1ncc(Cl)cc1N[C@@H](C)c1ccc(C(=O)N[C@@H](CC2CCCC2)C(=O)NC2CCC(F)(F)C2)s1 (stereo partly drawn) [Compound 26, (2S)-2-({5-[(1S)-1-[(5-chloro-2-methylpyridin-3-yl)amino]ethyl]thiophen-2-yl}formamido)-3-cyclopentyl-N-(3,3-difluorocyclopentyl)propanamide]
